In assay [1] the test system is KB. As to the kind of experiment: Antiproliferative activity against human KB cell line by MTT assay. The class given is functional, cell-based.
Assay [2] deals with ACHN. Nature of the assay: Antiproliferative activity against human ACHN cell line by MTT assay. The class given is functional, cell-based. In general terms: Formazan colour is commonly taken as a measure of viable cells.
The subject of assay [3] is MOLT-4. Nature of the assay: Antiproliferative activity against human MOLT4 cell line by MTT assay. It counts as functional, cell-based.
The subject of assay [4] is HeLa. Nature of the assay: Antiproliferative activity against human HeLa cells by MTT assay. It counts as functional, cell-based.
Assay [5] concerns CCRF-CEM. Nature of the assay: Antiproliferative activity against human CCRF-CEM cell line by MTT assay. It counts as functional, cell-based.
The subject of assay [6] is 5637. As to the kind of experiment: Antiproliferative activity against human 5637 cell line by MTT assay. The class given is functional, cell-based.
The subject of assay [7] is HEp-2. Nature of the assay: Antiproliferative activity against human Hep2 cell line by MTT assay. It counts as functional, cell-based.
Assay [8] deals with HT-29. Nature of the assay: Antiproliferative activity against human HT29 cell line by MTT assay. It counts as functional, cell-based.
Assay [9] has as its system G-361. Nature of the assay: Antiproliferative activity against human G361 cell line by MTT assay. It counts as functional, cell-based.
Assay [10] concerns MT4. As to the kind of experiment: Antiproliferative activity against human MT4 cell line by MTT assay. The class given is functional, cell-based.
In assay [11] the test system is C8166. As to the kind of experiment: Antiproliferative activity against human C8166 cell line by MTT assay. The class given is functional, cell-based.
For assay [12], the system named is CCRF-SB. Nature of the assay: Antiproliferative activity against human CCRF-SB cell line by MTT assay. It counts as functional, cell-based.
Assay [13] deals with WIL2-NS. Nature of the assay: Antiproliferative activity against human Wil2-NS cells by MTT assay. It counts as functional, cell-based.
Assay [14] concerns HT-29. As to the kind of experiment: Cell cycle arrest in HT29 cells by accumulation at S phase by flow cytometry at […]. It counts as functional, Homo sapiens. On the technique in general: In flow cytometry, cells or beads pass a laser one at a time.
Assay [15] addresses T1, DNA topoisomerase 1 (Homo sapiens) (UniProt P11387).
T1 sequence (whole entry): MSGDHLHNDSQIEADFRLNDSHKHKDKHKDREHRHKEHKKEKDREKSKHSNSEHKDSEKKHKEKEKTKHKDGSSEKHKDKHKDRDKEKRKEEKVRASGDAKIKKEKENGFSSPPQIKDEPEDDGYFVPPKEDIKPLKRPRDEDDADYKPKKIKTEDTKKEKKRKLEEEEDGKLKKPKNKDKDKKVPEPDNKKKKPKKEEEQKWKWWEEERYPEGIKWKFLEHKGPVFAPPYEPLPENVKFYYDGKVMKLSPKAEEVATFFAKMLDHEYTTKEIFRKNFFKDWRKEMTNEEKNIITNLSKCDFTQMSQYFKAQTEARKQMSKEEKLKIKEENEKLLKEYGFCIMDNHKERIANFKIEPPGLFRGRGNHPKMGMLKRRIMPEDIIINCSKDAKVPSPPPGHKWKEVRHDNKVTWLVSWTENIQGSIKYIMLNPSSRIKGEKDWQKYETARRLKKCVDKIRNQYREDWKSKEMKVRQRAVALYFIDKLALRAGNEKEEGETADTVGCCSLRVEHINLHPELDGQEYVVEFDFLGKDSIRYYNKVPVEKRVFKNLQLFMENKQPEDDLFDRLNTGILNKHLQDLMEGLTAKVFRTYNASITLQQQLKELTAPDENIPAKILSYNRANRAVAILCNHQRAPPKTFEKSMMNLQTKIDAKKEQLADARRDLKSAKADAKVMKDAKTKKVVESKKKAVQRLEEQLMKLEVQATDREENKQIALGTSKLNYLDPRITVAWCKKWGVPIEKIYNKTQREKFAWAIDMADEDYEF
As to the kind of experiment: Promotion of human topoisomerase 1-mediated DNA cleavage.

Assay [16] relates to HT-29. As to the kind of experiment: Cell cycle arrest in HT29 cells by accumulation at G2/M phase by flow cytometry at […]. The class given is functional, Homo sapiens.
Assay [17] has as its system HT-29. Nature of the assay: Cell cycle arrest in HT29 cells by accumulation at G0/G1 phase by flow cytometry at […]. The class given is functional, Homo sapiens.
Assay [18] addresses DNA topoisomerase II (Homo sapiens) (UniProt P11388+Q02880). Nature of the assay: Promotion of human topoisomerase 2-mediated DNA cleavage. It counts as protein assay.

The source made the active and inactive calls. The calls are words filed in the database; no cut-off is given here. *1 amine or outer side, *2 acyl side, *3 side chain or, on linkers, in order; H or OH if unused. Where a SMILES comes first, the peptide text is derived from it. Bridges are numbered along the chain shown (N, C = ends). Roman numbers before positions name the chains, in order. [ ]: non-standard residue; d: D form. Actinocin(1to9) = Cc1c2oc3c(C)ccc(C(=O)[*:2])c3nc-2c(C(=O)[*:1])c(N)c1=O; NMeV = CN[C@H](C(=O)O)C(C)C; Sar = CNCC(=O)O

`COc1cccc2c1C(=O)c1c(O)c3c(c(O)c1C2=O)C[C@@](O)(C(=O)CO)C[C@@H]3O[C@H]1C[C@H](N)[C@H](O)[C@H](C)O1` [DOXORUBICIN]: the IC50 was 150 nM in [1] and 1 nM in assay [2].

As to `Cc1ccc2nc3c4cccnc4c(=O)cc-3oc2c1C`, the IC50 in assay [3] was 3000 nM; in assay [4], 600 nM; in assay [1], 400 nM; in assay [5], 6000 nM; in [6], 1800 nM; in assay [7], 400 nM. Also, the IC50 was 6900 nM in assay [8]; 5 nM in assay [2]; 30 nM in assay [9]; 300 nM in assay [10]; 500 nM in [11]; 100 nM in [12]. Further, the IC50 in assay [13] was found to be 1800 nM.

Consider `O=c1cc2oc3cc4c(cc3nc-2c2cccnc12)CCCC4`, for which the IC50 in assay [3] is 1800 nM; in assay [4], 1100 nM; in assay [1] it was 1000 nM; in assay [5], 1100 nM; in assay [6] it was 1000 nM; in assay [7], 1700 nM. The IC50 in assay [8] was found to be 3300 nM; in assay [2] it was 1400 nM; in assay [9] it was 1500 nM; in [10], 1500 nM; in [11], 1000 nM; in assay [12], 2000 nM. In addition, 1200 nM corresponded to half-maximal inhibition in assay [13] (IC50).

Take `Cc1c2oc3c(C)ccc(C(=O)N[C@@H]4C(=O)N[C@H](C(C)C)C(=O)N5CCC[C@H]5C(=O)N(C)CC(=O)N(C)[C@@H](C(C)C)C(=O)O[C@@H]4C)c3nc-2c(C(=O)N[C@@H]2C(=O)N[C@H](C(C)C)C(=O)N3CCC[C@H]3C(=O)N(C)CC(=O)N(C)[C@@H](C(C)C)C(=O)O[C@@H]2C)c(N)c1=O` [DACTINOMYCIN] (I: T[dV]P[Sar][NMeV] / II: T[dV]P[Sar][NMeV]; ester I:1-I:C, II:1-II:C; linker I:N-II:N via Actinocin(1to9)): the IC50 in assay [1] stood at 1 nM.

Turning to `Cc1cc2nc3c4cccnc4c(=O)cc-3oc2cc1C`, the IC50 in assay [3] was 300 nM; in assay [4], 800 nM; in [1], 90 nM; in [5], 150 nM; in [6] it was 800 nM; in assay [7], 800 nM. For the same compound, the IC50 in [8] came to 30 nM; in [2], 400 nM; in [9] it was 900 nM; in assay [10], 100 nM; in assay [11] it was 40 nM; in assay [12], 40 nM. In [13], this compound returned an IC50 of 400 nM.

Take `O=c1cc2oc3ccc4c(c3nc-2c2cccnc12)CCCC4`: the concentration for half-maximal inhibition (IC50) stood at 3200 nM in [3]; 1600 nM in assay [4]; 1700 nM in [1]; 1300 nM in assay [5]; 1900 nM in assay [6]; 1900 nM in assay [7]. The IC50 came to 1000 nM in assay [8]; 1800 nM in assay [2]; 1300 nM in assay [9]; 1300 nM in assay [10]; 2000 nM in assay [11]; 1000 nM in [12]. Moreover, the concentration for half-maximal inhibition (IC50) in assay [13] is 4000 nM.

For `O=c1cc2oc3c(ccc4ccccc43)nc-2c2cccnc12`, the IC50 in [3] came out at 90 nM; in assay [4] it was 200 nM; in assay [1] it was 100 nM; in [5], 50 nM; in assay [6] it was 100 nM; in assay [7], 60 nM. For the same compound, the 50% inhibitory concentration (IC50) in assay [8] is 300 nM; in assay [2] it was 500 nM; in assay [9] it was 50 nM; in assay [10], 100 nM; in [11] it was 100 nM; in assay [12], 20 nM. This compound also yielded a 50% inhibitory concentration (IC50) in assay [13] of 60 nM. The Activity in assay [14] was 43.88%; in assay [16] it was 38.49%; in assay [17], 17.63%. In addition, the outcome in assay [15] and in assay [18] was inactive.

For `Cc1cc(C)c2nc3c4cccnc4c(=O)cc-3oc2c1`, the IC50 in assay [3] is 500 nM; in [4] it was 200 nM; in [1], 300 nM; in [5] it was 100 nM; in assay [6], 5 nM; in [7], 300 nM. For the same compound, the IC50 was 200 nM in assay [8]; 1 nM in assay [2]; 1 nM in [9]; 40 nM in [10]; 200 nM in assay [11]; 20 nM in assay [12]. In assay [13], 70 nM corresponded to half-maximal inhibition (IC50).

As to `O=c1cc2oc3ccccc3nc-2c2cccnc12`, the half-maximal inhibitory concentration (IC50) came out at 100 nM in assay [1], 200 nM in [8], 20 nM in [10] and 10 nM in assay [12].

As for `Cc1ccc(C)c2oc3cc(=O)c4ncccc4c-3nc12`, the concentration for half-maximal inhibition (IC50) in assay [3] came to 1600 nM; in assay [4], 900 nM; in assay [1] it was 500 nM; in assay [5] it was 700 nM; in assay [6] it was 10 nM; in [7] it was 400 nM. Also, the half-maximal inhibitory concentration (IC50) in [8] came out at 5500 nM; in [2] it was 500 nM; in [9], 700 nM; in [10], 80 nM; in [11], 8000 nM; in assay [12] it was 400 nM. In [13], this compound returned a concentration for half-maximal inhibition (IC50) of 1100 nM.

Consider `Cc1cc(C)c2oc3cc(=O)c4ncccc4c-3nc2c1`, for which the IC50 in assay [3] was found to be 1200 nM; in [4], 1700 nM; in [1], 1200 nM; in assay [5], 150 nM; in [6], 600 nM; in [7] it was 1100 nM. In addition, the IC50 was determined as 1600 nM in assay [8]; 900 nM in [2]; 1500 nM in assay [9]; 100 nM in [10]; 500 nM in assay [11]; 300 nM in assay [12]. The compound also registered a 50% inhibitory concentration (IC50) in assay [13] of 900 nM.

Regarding `Cc1ccc2oc3cc(=O)c4ncccc4c-3nc2c1C`, the IC50 in [3] was 2700 nM; in [4], 2600 nM; in assay [1], 700 nM; in [5] it was 200 nM; in [6] it was 900 nM; in assay [7] it was 1300 nM. For the same compound, the IC50 in [8] came to 1200 nM; in [2] it was 1800 nM; in [9], 1300 nM; in [10], 300 nM; in [11], 1100 nM; in assay [12] it was 1200 nM. Half-maximal inhibition in assay [13] (IC50) was put at 2000 nM.

Take `O=c1cc2oc3c4c(ccc3nc-2c2cccnc12)CCCC4`: the half-maximal inhibitory concentration (IC50) in assay [3] is 1900 nM; in [4], 2500 nM; in assay [1], 1000 nM; in assay [5], 1900 nM; in assay [6], 1100 nM; in [7], 1800 nM. Moreover, the IC50 in assay [8] stood at 2100 nM; in assay [2], 1900 nM; in assay [9], 2000 nM; in assay [10], 1500 nM; in assay [11], 1000 nM; in assay [12] it was 1400 nM. The compound also registered an IC50 in assay [13] of 2100 nM.

For `O=c1cc2oc3cc4ccccc4cc3nc-2c2cccnc12`, the IC50 came out at 10 nM in assay [3]; 50 nM in assay [4]; 20 nM in [1]; 4 nM in assay [5]; 20 nM in assay [6]; 50 nM in assay [7]. Besides, the half-maximal inhibitory concentration (IC50) in assay [8] came to 30 nM; in [2], 20 nM; in assay [9], 10 nM; in assay [10], 50 nM; in assay [11], 20 nM; in [12], 10 nM. Besides, the half-inhibitory concentration (IC50) in assay [13] was determined as 10 nM. Also, the Activity in assay [14] was found to be 20.93%; in assay [16] it was 55.01%; in [17], 24.06%. In addition, the result in assay [15] and in assay [18] was inactive.

As a reminder, the IC50 is the concentration that inhibits the measured activity by half. A higher IC50 goes with lower potency.
